Measurements reported in patent US6943279B1, “Amino polyol amine oxidase polynucleotides and related polypeptides and methods of use” (priority 1999, dated 2005).

B1: S206A: APAO mutated to alter the serine at position 206 to an alanine (SEQ ID NO: 33) (protein)
chain: MALAPSYINPPNVASPAGYSHVGVGPDGGRYVTIAGQIGQDASGVTDPAYEKQVAQAFANLRACLAAVGATSNDVTKLNYYIVDYAPSKLTAIGDGLKATFALDRLPPCTLVPVSALSSPEYLFEVDATALVPGHTTPDNVADVVVVGAGLSGLETARKVQAAGLSCLVLEAMDRVGGKTLSVQSGPGRTTINDLGAAWINDSNQAEVSRLFERFHLEGELQRTTGNSIHQAQDGTTTTAPYGDSLLSEEVASALAELLPVWSQLIEEHSLQDLKASPQAKRLDSVSFAHYCEKELNLPAVLGVANQITRALLGVEAHEISMLFLTDYIKSATGLSNIFSDKKDGGQYMRCKTGMQSICHAMSKELVPGSVHLNTPVAEIEQSASGCTVRSASGAVFRSKKVVVSLPTTLYPTLTFSPPLPAEKQALAENSILGYYSKIVFVWDKPWWREQGFSGVLQSSCDPISFARDTSIDVDRQWSITCFMVGDPGRKWSQQSKQVRQKSVWDQLRAAYENAGAQVPEPANVLEIEWSKQQYFQGAPSAVYGLNDLITLGSALRTPFKSVHFVGTETSLVWKGYMEGAIRSGQRGAAEVVASLVPAA
modifications: Glyc(-) APAO; mutation in glycosylation sites (Exophiala spinifera)
B2: trAPAO: truncated, but still functional APAO (SEQ ID NO: 6) (protein, listed as Exophiala spinifera)
chain: DNVADVVVVGAGLSGLETARKVQAAGLSCLVLEAMDRVGGKTLSVQSGPGRTTINDLGAAWINDSNQSEVSRLFERFHLEGELQRTTGNSIHQAQDGTTTTAPYGDSLLSEEVASALAELLPVWSQLIEEHSLQDLKASPQAKRLDSVSFAHYCEKELNLPAVLGVANQITRALLGVEAHEISMLFLTDYIKSATGLSNIFSDKKDGGQYMRCKTGMQSICHAMSKELVPGSVHLNTPVAEIEQSASGCTVRSASGAVFRSKKVVVSLPTTLYPTLTFSPPLPAEKQALAENSILGYYSKIVFVWDKPWWREQGFSGVLQSSCDPISFARDTSIDVDRQWSITCFMVGDPGRKWSQQSKQVRQKSVWDQLRAAYENAGAQVPEPANVLEIEWSKQQYFQGAPSAVYGLNDLITLGSALRTPFKSVHFVGTETSLVWKGYMEGAIRSGQRGAAEVVASLVPAA

How the values were obtained:
[1] = system: Maize coleoptiles; experiment: Effect of FB1 and AP1 on maize coleoptiles; type: cell-based; design: key to Injury of maize coleoptiles: + = brown necrotic discoloration of coleoptile; − = no symptoms (same as water control); settings: for Injury of maize coleoptiles: 2 days dark 28° C., then 3 days light
Protocol: Maize coleoptiles from 4 day dark-grown germinated maize seeds were excised above the growing point and placed in 96-well microtiter plates in the presence of 60 microliters of sterile distilled water containing FB1 or AP1 at approximately equimolar concentrations of 1.5, 0.5, 0.15, 0.05, 0.015, 0.005, 0.0015, or 0.0005 millimolar, along with water controls. After 2 days in the dark at 28° C. the coleoptiles were placed in the light and incubated another 3 days.

[2] = system: BMS cells; experiment: Effect of FB1 and AP1 on maize tissue cultured cells (Black Mexican Sweet, BMS); type: cell-based; settings: for concentration at which growth of BMS cells was inhibited: 1 week, liquid culture, 96-well plates
Protocol: FB1 or AP1 at various concentrations was added to suspensions of BMS cells growing in liquid culture medium in 96-well polystyrene plates. After 1 week the cell density in wells was observed under low power magnification and growth of toxin-treated wells was compared to control wells that received water. […] This represents an approximate 100-fold difference in toxicity to maize tissue cultured cells. […] AP1 was not tested in that study, however.

[3] = system: APAO; experiment: APAO activity of crude cell-free extract, TLC; type: biochemical, Exophiala spinifera
Protocol: (§1) For analysis of APAO activity, an alternative method was used. Equal volumes of sample and ^14C-AP1 (1 mg/ml, pH 8, 50 mM sodium phosphate) were incubated at room temperature for one to six days. Analytical thin-layer chromatography was then carried out on C60 HPK silica gel plates (Whatman #4807-700; 10×10 cm; 0.2 mm thick). After application of from 0.1 to 2 μl of aqueous sample, the plates were air-dried and developed in CHCl3:MeOH:CH3COOH:H20 (55:36:8:1). Plates were then air dried, and exposed to Phosphorlmager screen (Molecular Dynamics) or autoradiographic film. A Storm™ Phosphorlmager (Molecular Dynamics) was used to scan the image produced on the screen.
A cell-free extract that contains the deaminase activity was obtained by subjecting substrate-induced Exophiala spinifera cells to disruption using a Bead Beater™ in 50 mM Na-phosphate, pH 8.0, and recovering the cell-free supernatant by centrifugation and 0.45 micron filtration. Catabolic activity is assayed by incubating extracts with AP1 (hydrolyzed fumonisin BI backbone) or “^4C-labelled AP1 with the extract and evaluating by TLC on C18 or C60 silica. […] Other amine-containing substrates were tested for modification by the crude extract. […] Preparative amounts of the product, named 2-OP, have also been purified and analyzed by C13 nmr.

[4] = system: APAO enzyme; type: biochemical, Exophiala spinifera; settings: 1 mM substrate; pH 8.0, room temperature
Protocol: The following assay was used to determine the substrate specificity of the APAO enzyme. […] The APAO enzyme was recombinant enzyme produced,as GST fusion in E. coli, purified over a glutathione affinity column and cleaved with thrombin to remove the GST. All components were mixed at room temperature. The initial rate was determined in a spectrophotometer at 572 nm over one minute by absorbance units/second (BLANK). Ten microliters of APAO at 70 ug/ml was added and mixed. The initial rate was again determined at 572 nm over one minute in absorbance units/second (SAMPLE). The rates were converted to absorbance units/minute. The BLANK value was subtracted from the SAMPLE value. The absorbance units were converted to μM H2O2 wherein 1 μM H2O2 equals 0.138 absorbance units at pH 8.0.

[5] = system: Lemna tissues; settings: AP1 versus FB1; cited from earlier work
[6] = system: tomato; settings: cited from earlier work
[7] = system: maize callus; settings: solid medium; cited from earlier work
[8] = Other enzymes tested for ability to modify AP1, radiolabeled TLC; type: biochemical; settings: optimal conditions at 37° Celsius, overnight or longer
Protocol: as §1
Other enzymes were tested for their ability to modify AP1. All enzymes were assayed by radiolabeled TLC, as described above, under optimal conditions at 37° Celsius, overnight or longer.

[9] = Site-directed mutagenesis vectors: maize transient expression, APAO or trAPAO activity; type: biochemical; settings: transient expression in maize
Description: Please see the table above entitled “Table of site-directed mutagenesis vectors and enzyme assay results.” Thus, elimination of this glycosylation site is not in itself sufficient to have an active protein upon secretion. This could be due to glycosylation occurring at a second adjacent site (N201-S203). However, no active APAO was recovered when either N201 or S203 is mutated along with S206. […] This is backed up by predicted solvent accessibility numbers for these residues in the 3-D model based on the maize amine oxidase. Please see the table below entitled “Solvent accessibility for cysteine residues of truncated APAO.” The elimination of APAO glycosylation site at amino acids 204 to 206 is not sufficient to allow APAO to be secreted from the ccil and retain full enzyme activity, but elimination of this site may improve chances for obtaining a fully active enzyme once the other roadblock(s) to secretability have been resolved. In other words, elimination of this site may be necessary but not sufficient to produce active secretable APAO.

[10] = Mutated APAO lysates from E coli, Amplex Red assay, substrate FB1; type: biochemical; settings: Glyc(−) APAO lysates from E coli
[11] = Mutated APAO lysates from E coli, Amplex Red assay, substrate AP1; type: biochemical; settings: Glyc(−) APAO lysates from E coli
[12] = Pichia expression of trAPAO, TLC assay; type: biochemical, Pichia pastoris; settings: pellet suspensions and lysates; 6 days room temperature
Protocol: The Pichia culture fluids and pellets were assayed for APAO activity as described earlier.
The 50 μl cell pellets were resuspended in 150 μl cold 5OmM Na-phosphate, pH 8.0. and divided into two fresh 500 μl tubes. One tube was kept on ice with no treatment, the pellet suspension, and one tube was used for lysis. An equal volume of 0.1 mm zirconia-silica beads was added to each tube. The tubes were BeadBeatT™ for 15 seconds then cooled on ice 5 minutes. This was repeated three times. The crude lysate was then transferred to another tube for assay or lysate suspension.
The TLC assays were performed as follows, the samples are 1) pellet suspensions; 10 μl; 2) lysate suspensions; 10 μl; 3) media controls-mixed 5 μl media with 5 μl crude fungal enzyme; 10 μl; 4) positive control-used crude fungal enzyme undiluted; 10 μl; 5) substrate control-used 50 mM Na-phosphate, pH8.0; 10 μl. […]
A positive TLC result is obtained if an additional radioactive spot appears at a lower Rf of the produced AP1 modification earlier identified as 2-OP, a deaminated product of AP1. In samples #6 and #52 (without intron) the AP1-modifying enzyme activity (conversion of AP1 to 2-OP) was detected in pellet suspensions and pellet lysates, although the majority of activity was associated with the pellet suspensions. […]

Molecule	Injury of maize coleoptiles ([1]; 1.5 mM)	Injury of maize coleoptiles ([1]; .0005 mM)	Injury of maize coleoptiles ([1]; .0015 mM)	Injury of maize coleoptiles ([1]; .005 mM)	Injury of maize coleoptiles ([1]; .05 mM)	Injury of maize coleoptiles ([1]; .15 mM)	Injury of maize coleoptiles ([1]; .5 mM)	concentration at which growth of BMS cells was inhibited [2] [µM]	RATE [4] [μM H2O2/min]	also measured
CCCC[C@@H](C)[C@@H](O)[C@@H](O)C[C@@H](C)C[C@H](O)CCCC[C@@H](O)C[C@H](O)[C@H](C)N [AP1]	+	−	−	−	−	−	−	40	0.8876	Injury of maize coleoptiles ([1]; .015 mM): −; difference in toxicity between FB1 and AP1 to maize coleoptiles ([1]; AP1 versus FB1): ≥ 30 fold; difference in toxicity to maize tissue cultured cells ([2]; AP1 versus FB1): ~100 fold; time to complete conversion to 2-OP ([3]; pH 9): 30 min; less toxic than FB1 in Lemna tissues [5]: approx. 40 fold; reduction in toxicity to tomato by AP1 versus FB1 [6]: ~100 fold
CCCC[C@@H](C)[C@@H](OC(=O)C[C@@H](CC(=O)O)C(=O)O)[C@H](C[C@@H](C)C[C@H](O)CCCC[C@@H](O)C[C@H](O)[C@H](C)N)OC(=O)C[C@@H](CC(=O)O)C(=O)O [FB1, fumonisin B1]	+	−	−	−	+	+	+	0.4	0.1429	modification by the crude extract ([3]; crude cell-free extract of induced Exophiala spinifera, TLC): not modified; concentration giving significant inhibition of maize callus [7]: 1.4 µM
D-amino oxidase: EC 1.4.3.3, porcine kidney: Type X										Result (ability to modify AP1) [8]: negative
B1										Maize expression vector, APAO or trAPAO Activity (Act) [9]: no detectable enzyme activity; Conclusion [10]: Slightly active; M H2O2/min [10]: 0.07 μM H2O2/min; Conclusion [11]: Partially Active; M H2O2/min [11]: 0.85 μM H2O2/min
B2										APAO activity (conversion of AP1 to 2-OP) in Pichia transformants [12]: functions correctly in degrading AP1
